Assay results: US20110105472A1, “Diaminopyrimidines as crop protection agents” (Bayer CropScience AG, priority 2008, published 2011)

Assay: logP by LC-MS, method [b], acidic range pH 2.7
Format: physicochemical
Settings: pH 2.7

SMILES | log p
FC(F)Sc1ccc(Nc2ncc(Br)c(NC3CCC3)n2)cc1 [Compound 202] | 3.41[b]
C=CCNC(=O)c1ccc(Nc2ncc(C(F)(F)F)c(NC3CCC3)n2)cc1 [Compound 239] | 2.79[b]
CC(=O)c1cc(Nc2ncc(Br)c(NC3CCC3)n2)ccc1O [Compound 177] | 2.09[b]
CS(=O)(=O)c1cccc(Nc2ncc(C(F)(F)F)c(NC3CCC3)n2)c1 [Compound 264] | 2.76[b]
Clc1cc(Cl)cc(Nc2ncc(Br)c(NC3CCC3)n2)c1 [Compound 76] | 4.98[b]
Cc1cc(Nc2ncc(Br)c(NC3CCC3)n2)ccc1O [Compound 201] | 1.59[b]
N#Cc1cccc(Nc2ncc(Br)c(NC3CCC3)n2)c1 [Compound 64] | 2.67[b]
O=C1CCCN1c1ccc(Nc2ncc(Br)c(NC3CCC3)n2)cc1 [Compound 174] | 1.72[b]
CN1C(=O)COc2ccc(Nc3ncc(Br)c(NC4CCC4)n3)cc21 [compound 14] | 1.85[b]
N#CCc1cc(Nc2ncc(Br)c(NC3CCC3)n2)ccc1F [Compound 219] | 2.2[b]
O=C1CCC(=O)N1c1ccc(Nc2ncc(Br)c(NC3CCC3)n2)cc1 [compound 34] | 1.62[b]
FC(F)(F)Sc1ccc(Nc2ncc(Br)c(NC3CCC3)n2)cc1 [Compound 71] | 4.51[b]
FC1(F)Oc2ccc(Nc3ncc(Br)c(NC4CCC4)n3)cc2OC1(F)F [Compound 18] | 4.56[b]
CNC(=O)c1cccc(Nc2ncc(Br)c(NC3CCC3)n2)c1 [Compound 192] | 1.58[b]
Fc1cc(F)cc(Nc2ncc(Br)c(NC3CCC3)n2)c1 [compound 144] | 3.98[b]
COc1cccc(Nc2ncc(C(F)(F)F)c(NC3CCC3)n2)c1 [Compound 238] | 3.48[b]
CC(C)c1cccc(Nc2ncc(Br)c(NC3CCC3)n2)c1 [Compound 205] | 3.21[b]
O=S1(=O)Cc2ccc(Nc3ncc(Br)c(NC4CCC4)n3)cc2C1 [compound 20] | 1.78[b]
COc1ccc(Nc2ncc(Br)c(NC3CCC3)n2)cc1OC [Compound 65] | 1.71[b]
FC(F)C(F)(F)Oc1ccc(Nc2ncc(Br)c(NC3CCC3)n2)cc1 [compound 159] | 3.1[b]
COCCNCc1ccc(Nc2ncc(Br)c(NC3CCC3)n2)cc1 [Compound 176] | 1.13[b]
Brc1cnc(Nc2ccc3cc[nH]c3c2)nc1NC1CCC1 [Compound 2] | 1.7[b]
CNS(=O)(=O)Cc1ccc(Nc2ncc(Br)c(NC3CCC3)n2)cc1 [Compound 86] | 1.71[b]
CCOC(=O)Nc1ccc(Nc2ncc(Br)c(NC3CCC3)n2)cc1O [compound 151] | 1.8[b]
CC(C)Sc1cccc(Nc2ncc(Cl)c(NC3CCC3)n2)c1 [Compound 146] | 3.62[b]
CS(=O)(=O)c1cccc(Nc2ncc(Br)c(NC3CCC3)n2)c1 [Compound 265] | 2.07[b]

SMILES | log p
CN(C)C(=O)c1ccc(Nc2ncc(Cl)c(NC3CCC3)n2)cc1 [Compound 240] | 1.6[b]
CC(=O)CCc1cccc(Nc2ncc(Br)c(NC3CCC3)n2)c1 [Compound 253] | 2.04[b]
O=S1(=O)CCCN1c1cccc(Nc2ncc(Br)c(NC3CCC3)n2)c1 [Compound 258] | 2.25[b]
O=C1CCCc2ccc(Nc3ncc(Br)c(NC4CCC4)n3)cc2N1 [Compound 15] | 1.75[b]
Oc1cccc(Nc2ncc(Br)c(NC3CCC3)n2)c1 [Compound 178] | 1.5[b]
OC(c1cccc(Nc2ncc(Br)c(NC3CCC3)n2)c1)C(F)(F)F (stereo not shown) [Compound 214] | 2.17[b]
CC(=O)Nc1cc(Nc2ncc(Br)c(NC3CCC3)n2)ccc1C [Compound 200] | 1.58[b]
O=C1NC(=O)c2cc(Nc3ncc(Br)c(NC4CCC4)n3)ccc21 [compound 22] | 2.25[b]
CN(C)S(=O)(=O)c1ccc(Nc2ncc(Br)c(NC3CCC3)n2)cc1 [Compound 91] | 2.73[b]
O=C1CCc2cc(Nc3ncc(Br)c(NC4CCC4)n3)ccc2N1 [Compound 4] | 1.49[b]
OCc1cccc(Nc2ncc(Br)c(NC3CCC3)n2)c1 [Compound 185] | 1.44[b]
N#Cc1cnc(Nc2ccccc2)nc1NC1CCC1 [compound 29] | 2.92[b]
N#CCc1cccc(Nc2ncc(C(F)(F)F)c(NC3CCC3)n2)c1 [Compound 226] | 3.01[b]
COc1ccccc1Nc1ncc(Br)c(NC2CCC2)n1 [Compound 68] | 2.23[b]
CN(C)S(=O)(=O)Oc1cccc(Nc2ncc(Br)c(NC3CCC3)n2)c1 [Compound 89] | 2.7[b]
O=C(c1ccc(Nc2ncc(Br)c(NC3CCC3)n2)cc1)N1CCOCC1 [Compound 191] | 1.75[b]
COc1cccc(Nc2ncc(Cl)c(NC3CCC3)n2)c1 [Compound 109] | 2.06[b]
CC(C)(C)c1cccc(Nc2ncc(C(F)(F)F)c(NC3CCC3)n2)c1 [Compound 259] | 4.98[b]
CCOC(=O)c1cccc(Nc2ncc(Br)c(NC3CCC3)n2)c1 [Compound 77] | 2.77[b]
CC(C)(C)NC(=O)Cc1cccc(Nc2ncc(Br)c(NC3CCC3)n2)c1 [Compound 143] | 2.19[b]
Brc1cnc(Nc2ccc3[nH]ccc3c2)nc1NC1CCC1 [Compound 1] | 1.59[b]
CCNC(=O)c1cccc(Nc2ncc(Br)c(NC3CCC3)n2)c1 [Compound 190] | 1.73[b]
OC(c1cccc(Nc2ncc(Cl)c(NC3CCC3)n2)c1)C(F)(F)F (stereo not shown) [Compound 218] | 2.04[b]
O=C(NCC(F)(F)F)c1cccc(Nc2ncc(Br)c(NC3CCC3)n2)c1 [Compound 181] | 2.21[b]
CC(C)c1cccc(Nc2ncc(C(F)(F)F)c(NC3CCC3)n2)c1 [Compound 225] | 4.61[b]
CSc1ccc(Nc2ncc(Br)c(NC3CCC3)n2)cc1Cl [Compound 73] | 3.5[b]

Continued, values first:

log p | SMILES
2.09[b] | O=C(Nc1ccc(Nc2ncc(Cl)c(NC3CCC3)n2)cc1)C(F)(F)F [compound 121]
2.04[b] | CCOC(=O)Nc1cccc(Nc2ncc(Br)c(NC3CCC3)n2)c1 [Compound 105]
1.8[b] | COc1ccc(Nc2ncc(Br)c(NC3CCC3)n2)cc1 [Compound 208]
0.71[b] | Clc1cnc(Nc2ccc(NC3CC3)cc2)nc1NC1CCC1 [compound 207]
3.49[b] | Clc1cnc(Nc2ccc(I)cc2)nc1NC1CCC1 [compound 230]
2.33[b] | Fc1ccc(Nc2ncc(Br)c(NC3CCC3)n2)cc1 [Compound 49]
2.09[b] | CS(=O)(=O)c1ccc(Nc2ncc(Cl)c(NC3CCC3)n2)cc1 [compound 113]
2.77[b] | N#Cc1ccc(Nc2ncc(Cl)c(NC3CCC3)n2)cc1 [Compound 111]
1.92[b] | CCN(C(C)=O)c1ccc(Nc2ncc(Br)c(NC3CCC3)n2)cc1 [Compound 93]
2.53[b] | CN(C)S(=O)(=O)c1ccc(Nc2ncc(Cl)c(NC3CCC3)n2)cc1 [compound 114]
1.91[b] | C=CCNC(=O)c1ccc(Nc2ncc(Cl)c(NC3CCC3)n2)cc1 [Compound 241]
1.5[b] | CNC(=O)c1ccc(Nc2ncc(Cl)c(NC3CCC3)n2)cc1 [Compound 126]
1.8[b] | C=C(C)C(=O)Nc1cccc(Nc2ncc(Cl)c(NC3CCC3)n2)c1 [compound 124]
1.5[b] | CNC(=O)c1cccc(Nc2ncc(Cl)c(NC3CCC3)n2)c1 [compound 127]
2.6[b] | Fc1ccc(Nc2ncc(Br)c(NC3CCC3)n2)cc1 [Compound 62]
1.66[b] | O=C1CCCN1c1ccc(Nc2ncc(Cl)c(NC3CCC3)n2)cc1 [compound 133]
1.55[b] | COc1cc(Nc2ncc(Cl)c(NC3CCC3)n2)ccc1NC(C)=O [Compound 108]
1.24[b] | O=C(c1ccc(Nc2ncc(Cl)c(NC3CCC3)n2)cc1)N1CCOCC1 [Compound 249]
1.43[b] | CC(=O)Nc1ccc(Nc2ncc(Cl)c(NC3CCC3)n2)cc1 [Compound 117]
2.63[b] | CC(C)(C)C(=O)Cc1ccc(Nc2ncc(Br)c(NC3CCC3)n2)cc1 [Compound 104]

log p | SMILES
2.17[b] | CCOc1ccc(Nc2ncc(Br)c(NC3CCC3)n2)cc1 [Compound 35]
2.32[b] | CS(=O)(=O)c1ccc(Nc2ncc(Br)c(NC3CCC3)n2)cc1 [Compound 179]
2.46[b] | CC(C)(C)NC(=O)c1ccc(Nc2ncc(Br)c(NC3CCC3)n2)cc1 [Compound 102]
1.92[b] | CC1(C(=O)Nc2cccc(Nc3ncc(Cl)c(NC4CCC4)n3)c2)CC1 [Compound 140]
1.55[b] | O=c1[nH]c2ccc(Nc3ncc(Cl)c(NC4CCC4)n3)cc2o1 [compound 8]
1.59[b] | COc1cc(Nc2ncc(Br)c(NC3CCC3)n2)ccc1NC(C)=O [Compound 90]
1.85[b] | CCN(C)C(=O)c1ccc(Nc2ncc(Cl)c(NC3CCC3)n2)cc1 [Compound 246]
2.95[b] | N#Cc1ccc(Nc2ncc(Br)c(NC3CCC3)n2)cc1 [Compound 70]
1.97[b] | CC(=O)Nc1ccc(Nc2ncc(Br)c(NC3CCC3)n2)cc1Cl [Compound 186]
1.18[b] | CNc1ccc(Nc2ncc(Br)c(NC3CCC3)n2)cc1 [compound 213]
2.21[b] | O=C(Nc1ccc(Nc2ncc(Br)c(NC3CCC3)n2)cc1)C(F)(F)F [Compound 95]
1.61[b] | COC(=O)Nc1ccc(Nc2ncc(Cl)c(NC3CCC3)n2)cc1 [Compound 135]
1.88[b] | N#CCc1ccc(Nc2ncc(Cl)c(NC3CCC3)n2)cc1 [Compound 233]
1.75[b] | COc1ccc(Nc2ncc(Cl)c(NC3CCC3)n2)cc1 [Compound 110]
2.67[b] | CCc1cccc(Nc2ncc(Cl)c(NC3CCC3)n2)c1 [Compound 251]
1.98[b] | CC(=O)CCc1cccc(Nc2ncc(Cl)c(NC3CCC3)n2)c1 [Compound 256]
1.59[b] | O=C1OCCN1c1ccc(Nc2ncc(Cl)c(NC3CCC3)n2)cc1 [compound 132]
2.27[b] | O=C(c1ccc(Nc2ncc(Cl)c(NC3CCC3)n2)cc1)N1CCCCC1 [Compound 203]
3.13[b] | CC(C)c1ccc(Nc2ncc(Br)c(NC3CCC3)n2)cc1 [Compound 40]
